Details: mouse, in vivo, ip, 10 mg/kg

CC[C@@H]1Cc2cc(O)ccc2C2=C1c1ccc(O)cc1C[C@H]2CC [MGC-10]
passage of the blood brain barrier: did not pass the blood brain barrier

Source: publication PMC11784183, “Identification of an antibiotic from an HTS targeting EF-Tu:tRNA interaction: a prospective topical treatment for MRSA skin infections” (Applied and Environmental Microbiology, 2024)
